Reference: US6057371A, “Sigma receptor ligands and the use thereof” (Virginia Commonwealth University, priority 1992, dated 2000)
Where two headings read alike, the source gives them in different places.

Legend:
5-HT1A receptor = target: T1, 5-HT1A receptor (Rattus norvegicus, UniProt P19327); test: biochemical; type: binding; parameters: 47: 529-540 (1986); from tissue; host or cells: brain tissue, inferred from the cited method (rat frontal cortex); settings: Table 6; read-out: 5HT-1A (nM) MEAN
T1 sequence (P19327 1-422): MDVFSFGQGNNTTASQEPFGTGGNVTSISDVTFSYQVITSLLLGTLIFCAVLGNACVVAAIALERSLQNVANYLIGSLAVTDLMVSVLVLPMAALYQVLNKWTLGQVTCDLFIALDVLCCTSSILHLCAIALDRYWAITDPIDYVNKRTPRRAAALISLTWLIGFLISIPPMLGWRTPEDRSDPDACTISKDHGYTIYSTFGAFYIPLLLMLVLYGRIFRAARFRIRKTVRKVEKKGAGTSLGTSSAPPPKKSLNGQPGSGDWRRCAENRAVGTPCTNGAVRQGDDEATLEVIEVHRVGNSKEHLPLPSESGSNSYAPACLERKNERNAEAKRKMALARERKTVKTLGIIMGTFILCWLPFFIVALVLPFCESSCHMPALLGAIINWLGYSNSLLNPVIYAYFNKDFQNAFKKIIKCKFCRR
Description: (§1) Further sigma receptor binding assays against [^3 H]DTG and 5HT-1A binding assays were conducted according to the procedure outlined in the previous examples.

sigma receptor = test: Sigma receptor binding, [^3 H]DTG, brain membranes (both sigma-1 and sigma-2 sites); parameters: species or system guinea pig; settings: Table 6; [^3 H]DTG
Description: Sigma receptor binding assays using guinea pig brain membrane homogenates and the radioligand [^3 H]DTG were conducted as described by Weber et al.. […] Briefly, frozen whole guinea-pig brains (Biotrol, Indianapolis, Ind.) were homogenized in 10 volumes (w/v) of ice-cold 320 mM sucrose using a Brinkman polytron. The homogenate was centrifuged at 1,000× g for 20 minutes at 4° C. The supernatant was centrifuged at 20,000× g for 20 minutes at 4° C. The resulting pellet was resuspended in 10 initial volumes of 50 mM Tris/HCl buffer at pH 7.4 and centrifuged at 20,000× g for 20 minutes at 4° C. The resulting pellet was resuspended in 5 initial volumes ice-cold 50 mM Tris/Hcl […], and the final volume was adjusted to yield a protein concentration of 3 mg/ml. Aliquots of 20-ml were stored at -70° C. until used, with no detectable loss of binding.
The protein concentration in the 1-ml final incubation volume was 800 ug/ml, corresponding to 32 mg of brain tissue (original wet weight) and to a tissue concentration within the linear range for specific binding. […] Incubations were terminated after 90 minutes at room temperature by addition of 4 ml of ice-cold 50 mM Tris/HCl (pH 7.4) and rapid filtration of the membrane suspension through Whatman GF/B glass-fiber filters under vacuum, using a 48-well cell harvester (Brandel). The filters were washed 2 times with 4 ml of 50 mM Tris/HCl (pH 7.4). Each filter was suspended in 10 ml Cytoscint (ICI), and radioactivity was measured by liquid scintillation spectrometry at a counting efficiency of approximately 50%. IC50 values were determined by non-linear regression analyis.
as §1
Radioligand Binding. […] Briefly, membranes (P2 microsomal fraction) were diluted 1:3 with 50 mM Tris HCl (pH 7.4) and 0.4 mL was combined with 50 μL [^3 H]DTG (1-2 nM final concentration) and 50 μL of competing drug or buffer. After 90 min at room temperature, incubation was terminated by rapid filtration under vacuum through Whatman GF/B glass fiber filters using a Brandel 48-well cell harvester. Filters were washed three times with 5 mL of cold Tris HCl buffer and each filter was suspended in 5 mL of Cytoscint (ICN Biomedical). Radioactivity was measured by liquid scintillation spectrometry at a counting efficiency of 50%.

sigma-2 binding site = target: T2, sigma-2 binding site (Cavia porcellus, UniProt H0V073); test: biochemical; parameters: species or system guinea pig
T2 construct: Guinea pig whole membrane preparations (P2 microsomal fraction); from tissue; host or cells: guinea pig membranes (P2 microsomal fraction), as described by Weber et al; brain inferred from the sister test b489
T2 sequence (H0V073 1-176): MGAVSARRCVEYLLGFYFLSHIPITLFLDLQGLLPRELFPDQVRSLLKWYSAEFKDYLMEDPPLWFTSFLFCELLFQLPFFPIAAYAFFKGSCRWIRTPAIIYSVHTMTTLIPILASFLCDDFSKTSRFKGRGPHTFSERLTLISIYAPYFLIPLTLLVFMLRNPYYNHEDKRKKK
Description: For the standard equilibrium assay, the mixtures were incubated for 30 min. at room temperature, then filtered and the radioactivity determined as described above.

sigma-1 binding site = target: T3, sigma-1 binding site (Cavia porcellus, UniProt Q60492); test: biochemical; parameters: species or system guinea pig
T3 construct: Guinea pig whole membrane preparations (P2 microsomal fraction); from tissue; host or cells: guinea pig membranes (P2 microsomal fraction), as described by Weber et al; brain inferred from the sister test b489
Description: [^3 H]DTG was purchased from DuPont/NEN.
The radioactivity on the filters was determined by scintillation spectrometry at an efficiency of about 50% using Cytoscint (ICN) scintillation fluid.

[1] = SIGMA-2 KI vs. 3H-DTG + PENTAZOCINE MEAN
[2] = SIGMA-1 KI vs. 3H-PENTAZOCINE MEAN
[3] = Table 10, read-out: SIGMA-2 KI vs. 3H-DTG + PENTAZOCINE MEAN

T3 sequence (Q60492 whole entry): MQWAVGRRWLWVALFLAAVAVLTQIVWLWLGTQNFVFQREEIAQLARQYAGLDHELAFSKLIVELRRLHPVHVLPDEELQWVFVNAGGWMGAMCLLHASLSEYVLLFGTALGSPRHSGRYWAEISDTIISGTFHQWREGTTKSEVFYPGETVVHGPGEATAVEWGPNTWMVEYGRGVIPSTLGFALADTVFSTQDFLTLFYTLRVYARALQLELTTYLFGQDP

Compound | IC50 (5-HT1A receptor) [nM] | IC50 (sigma receptor) [nM] | Ki (sigma-2 binding site; [1]) [nM] | other results
C[C@@H](Cc1ccccc1)N(C)CCCCCc1ccccc1 [Compound 69] | 891 | 2.25 |  | 
CC(Cc1ccc(OCc2ccccc2)cc1)NCCCc1ccccc1 (stereo not drawn) [Compound 85] | 1150 | 28.1 |  | 
CCCc1ccc(CC(C)N(C)CCCc2ccccc2)cc1 (stereo not drawn) [Compound 86] | 502 | 2.43 |  | 
c1ccc(CCCCCN2CCC(c3ccccc3)CC2)cc1 [Compound 82] | 136 | 0.96 |  | 
c1ccc(CCCCCCNCCCc2ccccc2)cc1 [Compound 110] | 117 | 3.62 |  | 
C=CCN1CC[C@@]2(C)c3cc(O)ccc3C[C@@H]1[C@@H]2C [(-)SKF 10047, reference compound] |  |  | 9130 | 
CC(C)(C)[C@@]1(O)CCN2C[C@@H]3c4ccccc4CCc4cccc(c43)[C@H]2C1 [(-)Butaclamol, reference compound] |  |  | 3420 | 
CN1CCN(CCCN2c3ccccc3Sc3ccc(C(F)(F)F)cc32)CC1 [Trifluperizine, reference compound] |  |  | 161 | Ki (sigma-1 binding site; [2]): 561 nM; S1/S2 Ratio (sigma-1 binding site; Table 11, sigma-1/sigma-2): 3.497
CCCN1CCC[C@@H](c2cccc(O)c2)C1 [(-)3-PPP, reference compound] |  |  | 1260 | Ki (sigma-1 binding site; [2]): 312 nM; S1/S2 Ratio (sigma-1 binding site; Table 11, sigma-1/sigma-2): 0.248
CC(C)(C)[C@]1(O)CCN2C[C@H]3c4ccccc4CCc4cccc(c43)[C@@H]2C1 [(+)Butaclamol, reference compound] |  |  | 1400 | 
c1ccc(CCCCNCCCc2ccccc2)cc1 [Compound 72] | 11.3 | 7.23 |  | 
CCCc1ccc(CC(C)NCCCc2ccccc2)cc1 (stereo not drawn) [Compound 84] | 168 | 6.43 |  | 
COc1ccc2c(c1)[C@]13CCCC[C@@H]1[C@H](C2)N(C)CC3 [Dextromethorphan, reference compound] |  |  | 15000 | Ki (sigma-1 binding site; SIGMA-1 KI vs. 3H-P[…]): 522 nM; S1/S2 Ratio (sigma-1 binding site; guinea pig, microsomes): 0.035
CC(C)CCN(C)[C@@H](C)Cc1ccccc1 [Compound 115] | 20000 | 3.04 |  | 
c1ccc2cc(N3CCNCC3)ccc2c1 [Compound 60, N-(2-Naphthyl)piperazine] |  |  |  | Ki (sigma-1 binding site; Table 10, read-out: SIGMA-1 KI vs. 3H-PENTAZOCINE MEAN): 220 nM; Ki (sigma-2 binding site; [3]): 5600 nM
c1ccc(CCCNC2CCCc3ccccc3C2)cc1 (stereo not drawn) [Compound 67] | 19.3 | 59.6 |  | 
OCCN1CCN(CCCN2c3ccccc3Sc3ccc(Cl)cc32)CC1 [Perphenazine, reference compound] |  |  | 80.4 | Ki (sigma-1 binding site; [2]): 25.1 nM; S1/S2 Ratio (sigma-1 binding site; Table 11, sigma-1/sigma-2): 0.312
OC1(Cc2ccccc2)CCN(CCCCCc2ccccc2)CC1 [Compound 118] | 1970 | 2.14 |  | 
CN(CCCCCc1ccccc1)Cc1ccccc1 [Compound 137, N-Benzyl-N-methyl-5-phenylpentylamine] |  | 1.11 |  | Ki (sigma-2 binding site; [3]): 12.5 nM; IC50 (sigma-2 binding site; Table 18, read-out: IC50 (nM) at sigma-2): 12 nM
CC(C)N(CCNC(=O)CN1CCCC1=O)C(C)C [Pramiracetam, reference compound] |  |  | 10000 | Ki (sigma-1 binding site; [2]): 10000 nM; S1/S2 Ratio (sigma-1 binding site; Table 11, sigma-1/sigma-2): 1.000
C[C@@H](Cc1ccccc1)N(C)CCCc1ccc2ccccc2c1 [Compound 68] | 1320 | 3.25 |  | 
